# Experimental data reported in PMC11352859, “Functionalized Congeners of 2H-Chromene P2Y6 Receptor Antagonists” (Cells, 2024).
# Columns and labels:
# hP2Y6R = molecular target: T1, hP2Y6R (Homo sapiens, UniProt Q15077); assay: UDP (100 nM)-induced Ca2+ mobilization in hP2Y6R stably transfected 1321N1 astrocytoma cells; format: cell-based; details: for IC50: UDP 100 nM, 3–4 independent triplicate determinations, read-out: IC50, hP2Y6R (Mean ± SEM)
# T1 construct: expressed in transfected cells
# Procedure: To screen for P2Y6R antagonist activity, PLC-mediated calcium mobilization assays were carried out using the recombinant human P2Y6R stably expressed in 1321N1 astrocytoma cells (hP2Y6R-1321N1) according to the previously published method. Briefly, the hP2Y6R-1321N1 cells were seeded on 96-well black plates and incubated overnight. The antagonists were pretreated along with the FLIPR dye (Calcium 6 assay kit, Molecular Devices, San Jose, CA, USA) containing 5 mM probenecid for 45 min, prior to agonist addition followed by an immediate intracellular Ca^2+ measurement. […] Here, probenecid was used as an organic anion transporter inhibitor to prevent the efflux of the dye into the extracellular environment. During incubation, the membrane permeable dye enters the cytoplasm and cleaves the acetoxymethyl protection to enable Ca^2+ binding. When the P2Y6R was activated by UDP, the increased calcium concentration was directly measured by intracellular changes in the fluorescence intensity with a Fluorescent Imaging Plate Reader (FLIPR^TETRA, Molecular Devices, San Jose, CA, USA).
# hP2Y14R [1] = molecular target: T2, hP2Y14R (Homo sapiens, UniProt Q15391); assay: whole-cell binding of fluorescent antagonist MRS4174 in CHO-hP2Y14R cells (flow cytometry); details: CHO-hP2Y14, competitive binding, flow cytometer
# T2 construct: expressed in transfected cells
# T2 sequence (Q15391 1-338): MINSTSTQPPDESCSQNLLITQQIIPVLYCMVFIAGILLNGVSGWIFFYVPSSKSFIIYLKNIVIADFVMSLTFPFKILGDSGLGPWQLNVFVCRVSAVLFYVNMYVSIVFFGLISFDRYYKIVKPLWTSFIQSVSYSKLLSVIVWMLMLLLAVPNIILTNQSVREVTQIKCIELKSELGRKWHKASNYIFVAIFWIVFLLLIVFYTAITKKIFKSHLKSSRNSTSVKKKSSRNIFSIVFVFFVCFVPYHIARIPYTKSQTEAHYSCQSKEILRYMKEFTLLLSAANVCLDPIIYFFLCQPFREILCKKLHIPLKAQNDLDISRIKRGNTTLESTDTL
# α2A = molecular target: T3, α2A (Homo sapiens, UniProt P08913); assay: PDSP binding assay, α2A; details: PDSP, mean, n = 2; read-out: Ki, α2A
# T3 construct: NIMH Psychoactive Drug Screening Program (PDSP)
# T3 sequence (P08913 1-465): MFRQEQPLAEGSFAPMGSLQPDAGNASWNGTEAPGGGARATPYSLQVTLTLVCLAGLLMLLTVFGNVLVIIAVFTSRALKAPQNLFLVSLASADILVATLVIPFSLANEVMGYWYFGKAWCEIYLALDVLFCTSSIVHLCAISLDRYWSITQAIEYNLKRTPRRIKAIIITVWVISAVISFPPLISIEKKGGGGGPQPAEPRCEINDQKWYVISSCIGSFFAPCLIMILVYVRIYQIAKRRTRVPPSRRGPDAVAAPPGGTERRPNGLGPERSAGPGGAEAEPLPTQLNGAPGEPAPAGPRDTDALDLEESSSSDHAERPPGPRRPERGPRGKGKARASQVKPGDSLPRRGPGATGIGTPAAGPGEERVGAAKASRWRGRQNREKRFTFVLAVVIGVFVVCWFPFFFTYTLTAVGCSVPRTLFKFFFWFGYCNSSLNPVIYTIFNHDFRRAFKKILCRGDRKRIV
# Source text: (§1) Table S2. Off-target screening (to replace table later). We thank Dr. Bryan L. Roth (Univ. North Carolina at Chapel Hill) and National Institute of Mental Health's Psychoactive Drug Screening Program (Contract # HHSN-271-2008-00025-C) for screening data. Reference: Besnard et al.
# (§2) Procedures: https://pdsp.unc.edu/pdspweb/content/UNC-CH%20Protocol%20Book.pdf […]
# (§3) nucleosides were found at the following sites (human unless noted): 5HT1A, 5HT1B, 5HT1D, […]
# (§4) β3, BZP rat brain site, D1, D2, D3, D4, D5, GABAA, H1, H2, H3, H4, M1, M2, M5, δ-opioid receptor (DOR), κ-opioid receptor (KOR), μ-opioid receptor (MOR), σ1, σ2, DAT, NET, SERT. Ki values […]
# (§5) Compound # PDSP # Receptor LogKi Ki (nM)
# α2B = molecular target: T4, α2B (Homo sapiens, UniProt P18089); assay: PDSP binding assay, α2B; details: mean, n = 2
# T4 construct: NIMH Psychoactive Drug Screening Program (PDSP)
# T4 sequence (P18089 1-450): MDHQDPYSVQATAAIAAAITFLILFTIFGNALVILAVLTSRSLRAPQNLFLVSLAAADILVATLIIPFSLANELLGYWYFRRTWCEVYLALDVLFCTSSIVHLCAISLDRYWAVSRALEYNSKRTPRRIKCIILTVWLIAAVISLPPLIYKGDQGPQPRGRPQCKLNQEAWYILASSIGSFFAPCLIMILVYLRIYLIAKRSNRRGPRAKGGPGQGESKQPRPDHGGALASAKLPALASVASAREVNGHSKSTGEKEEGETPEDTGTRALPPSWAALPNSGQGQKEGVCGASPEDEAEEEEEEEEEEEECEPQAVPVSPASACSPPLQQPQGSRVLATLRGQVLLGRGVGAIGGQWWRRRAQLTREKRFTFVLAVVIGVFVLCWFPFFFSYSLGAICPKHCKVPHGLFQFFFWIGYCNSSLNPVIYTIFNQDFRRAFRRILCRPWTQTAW
# Source text: as §1, §2, §3, §4, §5
# D5 = molecular target: T5, D5 (Homo sapiens, UniProt P21918); assay: PDSP binding assay, D5; details: PDSP, mean, n = 2; read-out: Ki, D5
# T5 construct: NIMH Psychoactive Drug Screening Program (PDSP)
# Source text: as §1, §2, §3, §4, §5
# H1 = molecular target: T6, H1 (Homo sapiens, UniProt P35367); assay: PDSP binding assay, H1; details: PDSP, mean, n = 2; read-out: Ki, H1
# T6 construct: NIMH Psychoactive Drug Screening Program (PDSP)
# Source text: as §1, §2, §3, §4, §5
# 5-HT1D = molecular target: T7, 5-HT1D (Homo sapiens, UniProt P28221); assay: PDSP binding assay, 5-HT1D; details: PDSP, mean, n = 2; read-out: Ki, 5-HT1D
# T7 construct: NIMH Psychoactive Drug Screening Program (PDSP)
# Source text: as §1, §2, §3, §4, §5
# hP2Y14R [2] = molecular target: T2, hP2Y14R; parameters: method as in PMID 28527783, PMID 23235874; details: previous members of the series; ref [29],[43]; cited from earlier work
# T1 sequence (Q15077 whole entry): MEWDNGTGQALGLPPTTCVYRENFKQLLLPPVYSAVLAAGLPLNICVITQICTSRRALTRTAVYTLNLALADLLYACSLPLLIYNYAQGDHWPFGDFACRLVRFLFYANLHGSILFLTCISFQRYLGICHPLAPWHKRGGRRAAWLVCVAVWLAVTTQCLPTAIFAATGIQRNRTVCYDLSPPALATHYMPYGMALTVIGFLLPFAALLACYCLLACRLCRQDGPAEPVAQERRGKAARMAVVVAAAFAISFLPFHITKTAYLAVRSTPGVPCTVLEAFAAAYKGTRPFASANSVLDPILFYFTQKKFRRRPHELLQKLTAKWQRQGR
# T6 sequence (P35367 whole entry): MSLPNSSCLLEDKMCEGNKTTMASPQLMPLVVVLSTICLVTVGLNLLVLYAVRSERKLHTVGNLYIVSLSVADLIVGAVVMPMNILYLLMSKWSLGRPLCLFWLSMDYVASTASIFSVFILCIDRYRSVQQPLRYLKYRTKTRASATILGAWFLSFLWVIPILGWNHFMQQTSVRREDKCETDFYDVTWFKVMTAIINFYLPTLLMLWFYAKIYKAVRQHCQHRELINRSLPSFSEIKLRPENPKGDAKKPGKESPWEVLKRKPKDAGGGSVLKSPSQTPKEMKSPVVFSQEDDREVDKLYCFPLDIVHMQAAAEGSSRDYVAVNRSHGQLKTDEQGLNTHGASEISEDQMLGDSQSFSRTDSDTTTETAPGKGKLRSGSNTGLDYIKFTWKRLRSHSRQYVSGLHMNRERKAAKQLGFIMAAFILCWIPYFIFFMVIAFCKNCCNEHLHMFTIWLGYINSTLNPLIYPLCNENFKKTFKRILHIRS
# T5 sequence (P21918 whole entry): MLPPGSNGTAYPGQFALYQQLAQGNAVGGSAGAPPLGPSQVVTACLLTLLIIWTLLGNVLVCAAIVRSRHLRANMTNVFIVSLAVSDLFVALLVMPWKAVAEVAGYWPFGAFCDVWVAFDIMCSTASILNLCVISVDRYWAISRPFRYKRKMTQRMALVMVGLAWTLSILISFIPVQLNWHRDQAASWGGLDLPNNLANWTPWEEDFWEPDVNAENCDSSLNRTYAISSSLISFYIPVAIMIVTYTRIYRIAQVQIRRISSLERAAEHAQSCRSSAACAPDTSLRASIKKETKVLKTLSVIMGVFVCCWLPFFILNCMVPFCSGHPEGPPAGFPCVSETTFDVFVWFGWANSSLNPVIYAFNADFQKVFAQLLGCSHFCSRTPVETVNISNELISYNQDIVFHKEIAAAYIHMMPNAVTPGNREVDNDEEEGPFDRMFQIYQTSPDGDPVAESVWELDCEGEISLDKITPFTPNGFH
# T7 sequence (P28221 whole entry): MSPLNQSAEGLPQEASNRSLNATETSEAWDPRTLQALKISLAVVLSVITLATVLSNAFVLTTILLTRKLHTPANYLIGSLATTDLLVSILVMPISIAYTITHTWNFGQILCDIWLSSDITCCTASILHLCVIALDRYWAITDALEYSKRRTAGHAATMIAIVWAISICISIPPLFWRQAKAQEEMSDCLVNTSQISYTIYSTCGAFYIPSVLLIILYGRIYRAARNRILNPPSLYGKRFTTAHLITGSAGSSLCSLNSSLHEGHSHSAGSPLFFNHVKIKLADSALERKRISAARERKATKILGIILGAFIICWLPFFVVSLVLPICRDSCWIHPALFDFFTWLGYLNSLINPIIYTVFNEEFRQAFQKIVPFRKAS
IC50 (hP2Y6R),SMILES,also measured
4.79 ± 1.45 µM,"O=[N+]([O-])C1=Cc2cccc(C#CCCCCCCCCBr)c2OC1C(F)(F)F (stereo not drawn) [Compound 36, 8-(10-Bromodec-1-yn-1-yl)-3-nitro-2-(trifluoromethyl)-2H-chromene]",–
1.87 ± 0.11 µM,CC(C)(C)OC(=O)NCCCC#Cc1ccc2c(c1)C=C([N+](=O)[O-])C(C(F)(F)F)O2 (stereo not drawn) [Compound 22],–
12.4 ± 1.3 µM,NCCCCCC#Cc1ccc2c(c1)C=C([N+](=O)[O-])C(C(F)(F)F)O2 (stereo not drawn) [Compound 27],–
20 ± 5.2 µM,NCCCCCCCCC#Cc1ccc2c(c1)C=C([N+](=O)[O-])C(C(F)(F)F)O2 (stereo not drawn) [Compound 34],–
4.96 ± 1.96 µM,CC(C)(C)OC(=O)NCCCCCCCC#Cc1cccc2c1OC(C(F)(F)F)C([N+](=O)[O-])=C2 (stereo not drawn) [Compound 37],fold lower affinity compared to 30 (hP2Y6R; hP2Y6R IC50 ratio): 31 fold; IC50 (hP2Y14R [1]): 31.2 ± 12.2 µM; Ki (α2A): 5.2 µM; Ki (α2B): 4.8 µM; Ki (D5): 4.2 µM; Ki (H1): 7.3 µM; Ki (5-HT1D): 3.5 µM
20 ± 5.1 µM,NCCCCCCC#Cc1ccc2c(c1)C=C([N+](=O)[O-])C(C(F)(F)F)O2 (stereo not drawn) [Compound 29],–
–,O=[N+]([O-])C1=Cc2cccc(Cl)c2OC1C(F)(F)F (stereo not drawn) [Compound 8],hP2Y14R binding (hP2Y14R [2]): inactive
9.98 ± 1.37 µM,NCCCC#Cc1ccc2c(c1)C=C([N+](=O)[O-])C(C(F)(F)F)O2 (stereo not drawn) [Compound 23],–
6.37 ± 1.82 µM,NCCCCCCCC#Cc1ccc2c(c1)C=C([N+](=O)[O-])C(C(F)(F)F)O2 (stereo not drawn) [Compound 32],–
14 ± 4.7 µM,O=[N+]([O-])C1=Cc2cc(C#CCCCCCCCCBr)ccc2OC1C(F)(F)F (stereo not drawn) [Compound 19],–
–,O=[N+]([O-])C1=Cc2ccc(Cl)cc2OC1C(F)(F)F (stereo not drawn) [Compound 7],hP2Y14R binding (hP2Y14R [2]): inactive
23.8 ± 6.8 µM,CC(C)(C)OC(=O)NCCCCCCCCC#Cc1cccc2c1OC(C(F)(F)F)C([N+](=O)[O-])=C2 (stereo not drawn) [Compound 39],–
> 50 µM,O=C(O)CCOCCOCCOCCOCC#Cc1cccc2c1OC(C(F)(F)F)C([N+](=O)[O-])=C2 (stereo not drawn) [Compound 41],–
45.4 ± 17.7 µM,CC(C)(C)OC(=O)NCCCCCCCCC#Cc1ccc2c(c1)C=C([N+](=O)[O-])C(C(F)(F)F)O2 (stereo not drawn) [Compound 33],–
